Measured values taken from patent US7238830B2, “N-alkylaspartyl dipeptide ester compounds” (Ajinomoto Co., Inc., priority 1998, dated 2007).
Read-outs that look alike come from different tables or passages of the source. Each block holds one compound with its values, some of them ahead of it. Peptide text beside a SMILES is read from it.

What was measured:
[1] = Sensory evaluation of sweetness (sweetening potency) relative to sucrose; settings: for Sweetness (sweetening potency): sensory evaluation; for sweetness potency: values compared to sweetening potency of a 4% aqueous solution of sucrose
Text: For example, the sweetness of N-[N-[3-(3-hydroxy-4-methoxyphenyl)-3-methylbutyl]-L-α-aspartyl]-L-phenylalanine 1-methyl ester was approximately 70000 times that of sugar, the sweetness of N-[N-[3-(3-methyl-4 hydroxyphenyl)-3-methylbutyl]-L-α-aspartyl]-L-phenylalanine 1-methyl ester was approximately 70000 times that of sugar, the sweetness of N-[N-[3-(3-hydroxy-4-methylphenyl)-3-methylbutyl]-L-α- aspartyl]-L-phenylalanine 1-methyl ester was approximately 60000 times that of sugar, and the sweetness of N-[N-((RS)-3-(3 hydroxy-4-methoxyphenyl) butyl]-L-α-aspartyl]-L-phenylalanine 1-methyl ester was approximately 50000 times that of sugar. […] Sensory evaluations can be performed as described in, for example, B. T. Carr, S. D. Pecore, K. M. Gibes and G. E. Dubois, “Sensory Methods for Sweetner Evaluation” in Flavor Measurement, edited by C. T. Ho and C. H. Manley, Marcel Decker, Inc. (1992).

[2] = reported in WO 94/11391, compared to 2%, 5% and 10% sucrose solutions, cited from earlier work
physchem = assay type: physicochemical; settings: buffer, pH 3

SMILES: COC(=O)[C@H](Cc1ccccc1)NC(=O)[C@H](CC(=O)O)NCCC(C)(C)c1ccc(OC)c(O)c1
Sweetness (sweetening potency) [1]: approximately 70000 times the sweetness of sugar

SMILES: COC(=O)[C@H](Cc1ccccc1)NC(=O)[C@H](CC(=O)O)NCCC(C)c1ccc(OC)cc1 (mixture of isomers) [Compound 1, N-[N-[(RS)-3-(4-methoxyphenyl)butyl]-L-α-aspartyl]-L-phenylalanine 1-methyl ester]
Sweetness (sweetening potency) [1]: 16000 times the sweetness of sugar | sweetness potency [1]: 16000

SMILES: COC(=O)[C@H](Cc1ccccc1)NC(=O)[C@H](CC(=O)O)NCCC(C)c1cccc(O)c1 (mixture of isomers) [Compound 2, N-[N-[(RS)-3-(3-hydroxyphenyl)butyl]-L-α-aspartyl]-L-phenylalanine 1 methyl ester]
Sweetness (sweetening potency) [1]: 12000 times the sweetness of sugar | sweetness potency [1]: 12000

SMILES: COC(=O)[C@H](Cc1ccccc1)NC(=O)[C@H](CC(=O)O)NCCC(C)c1ccc(O)c(OC)c1 (mixture of isomers) [Compound 3, N-[N-[(RS)-3-(3-methoxy-4-hydroxyphenyl)butyl]-L-α-aspartyl]-L-phenylalanine 1-methyl ester]
Sweetness (sweetening potency) [1]: 30000 times the sweetness of sugar | sweetness potency [1]: 30000

SMILES: COC(=O)[C@H](Cc1ccccc1)NC(=O)[C@H](CC(=O)O)NCCC(C)c1ccc(OC)c(O)c1 (mixture of isomers) [Compound 4, N-[N-[(RS)-3-(3-hydroxy-4-methoxyphenyl)butyl]-L-α-aspartyl]-L-phenylalanine 1-methyl ester]
Sweetness (sweetening potency) [1]: approximately 50000 times the sweetness of sugar | Sweetness (sweetening potency) ([1]; listed as Example 17): 50000 times the sweetness of sugar | sweetness potency [1]: 50000

SMILES: COC(=O)[C@H](Cc1ccc(O)cc1)NC(=O)[C@H](CC(=O)O)NCCC(C)c1ccc(O)c(OC)c1 (mixture of isomers) [Compound 5, N-[N-[(RS)-3-(3-methoxy-4-hydroxyphenyl)butyl]-L-α-aspartyl]-L-tyrosine 1-methyl ester]
Sweetness (sweetening potency) [1]: 25000 times the sweetness of sugar | sweetness potency [1]: 25000

SMILES: COC(=O)[C@H](CC1CCCCC1)NC(=O)[C@H](CC(=O)O)NCCC(C)c1ccc(OC)c(O)c1 (mixture of isomers) [Compound 6]
Sweetness (sweetening potency) [1]: 40000 times the sweetness of sugar | sweetness potency [1]: 40000

SMILES: COC(=O)[C@H](Cc1ccccc1)NC(=O)[C@H](CC(=O)O)NCCC(C)c1ccc(O)c(C)c1 (mixture of isomers) [Compound 11, N-[N-[(RS)-3-(3-methyl-4-hydroxyphenyl)butyl]-L-α-aspartyl]-L-phenylalanine 1-methyl ester]
Sweetness (sweetening potency) [1]: 50000 times the sweetness of sugar | sweetness potency [1]: 50000

SMILES: COC(=O)[C@H](Cc1ccccc1)NC(=O)[C@H](CC(=O)O)NCC(C)Cc1ccc(OC)c(O)c1 (mixture of isomers) [Compound 12, N-[N-[3-(3-hydroxy-4-methoxyphenyl)-(RS)-2-methylpropyl)-L-α-aspartyl)-L-phenylalanine 1-methyl ester]
Sweetness (sweetening potency) [1]: 5000 times the sweetness of sugar | sweetness potency [1]: 5000

SMILES: COC(=O)[C@H](Cc1ccccc1)NC(=O)[C@H](CC(=O)O)NC(C)CCc1ccc(O)c(OC)c1 (mixture of isomers) [N-[N-[3-(3-methoxy-4-hydroxyphenyl)(RS)-1-methylpropyl]-L-α-aspartyl]-L-phenylalanine 1-methylester]
sweetening potency [2]: 500 times that of sucrose

SMILES: COC(=O)[C@H](Cc1ccccc1)NC(=O)[C@H](CC(=O)O)NCCC(C)(C)c1ccc(OC)cc1 [Compound 7, N-[N-[3-(4-methoxyphenyl)-3-methylbutyl]-L-α-aspartyl)-L-phenylalanine 1-methyl ester]
Sweetness (sweetening potency) [1]: 25000 times the sweetness of sugar | sweetness potency [1]: 25000

SMILES: COC(=O)[C@H](Cc1ccccc1)NC(=O)[C@H](CC(=O)O)NCCC(C)(C)c1ccccc1O [Compound 13, N-[N-[3-(2-hydroxyphenyl)-3-methylbutyl]-L-α-aspartyl]-L-phenylalanine 1-methyl ester]
Sweetness (sweetening potency) [1]: 8000 times the sweetness of sugar | sweetness potency [1]: 8000

SMILES: COC(=O)[C@H](Cc1ccccc1)NC(=O)[C@H](CC(=O)O)NCCC(C)(C)c1ccc(OC)cc1O [Compound 14, N-[N-[3-(2-hydroxy-4-methoxyphenyl)-3-methylbutyl]-L-α-aspartyl]-L-phenylalanine 1-methyl ester]
Sweetness (sweetening potency) [1]: 20000 times the sweetness of sugar | sweetness potency [1]: 20000

SMILES: COC(=O)[C@H](Cc1ccccc1)NC(=O)[C@H](CC(=O)O)NCCC(C)(C)c1ccc(C)cc1O [Compound 15, N-[N-[3-(2-hydroxy-4-methylphenyl)-3-methylbutyl]-L-α-aspartyl]-L-phenylalanine 1-methyl ester]
Sweetness (sweetening potency) [1]: 25000 times the sweetness of sugar | sweetness potency [1]: 25000

SMILES: COC(=O)[C@H](Cc1ccccc1)NC(=O)[C@H](CC(=O)O)NCCC(C)(C)c1ccc2c(c1)OCO2 [Compound 16, N-[N-[3-(3,4-methylenedioxyphenyl)-3-methylbutyl]-L-α-aspartyl]-L-phenylalanine-1-methyl ester]
Sweetness (sweetening potency) [1]: 30000 times the sweetness of sugar | sweetness potency [1]: 30000

SMILES: COC(=O)[C@H](Cc1ccccc1)NC(=O)[C@H](CC(=O)O)NCCC(C)(C)c1ccc(OC)c(C)c1 [Compound 17, N-[N-[3-(3-methyl-4-methoxyphenyl)-3-methylbutyl]-L-α-aspartyl]-L-phenylalanine 1-methyl ester]
Sweetness (sweetening potency) [1]: 30000 times the sweetness of sugar | sweetness potency [1]: 30000

SMILES: COC(=O)[C@H](Cc1ccccc1)NC(=O)[C@H](CC(=O)O)NCCC(C)(C)c1ccc(O)c(C)c1 [Compound 18, N-[N-[3-(3-methyl-4-hydroxyphenyl)-3-methylbutyl)-L-α-aspartyl]-L-phenylalanine 1-methyl ester]
Sweetness (sweetening potency) [1]: approximately 70000 times the sweetness of sugar | Sweetness (sweetening potency) ([1]; listed as Example 11): 70000 times the sweetness of sugar | sweetness potency [1]: 70000

SMILES: COC(=O)[C@H](Cc1ccccc1)NC(=O)[C@H](CC(=O)O)NCCC(C)(C)c1ccc(C)c(O)c1 [Compound 19, N-[N-[3-(3-hydroxy-4-methylphenyl)-3-methylbutyl]-L-α-aspartyl]-L-phenylalanine 1-methyl ester]
Sweetness (sweetening potency) [1]: approximately 60000 times the sweetness of sugar | Sweetness (sweetening potency) ([1]; listed as Example 22): 60000 times the sweetness of sugar | sweetness potency [1]: 60000

SMILES: COC(=O)[C@H](Cc1ccccc1)NC(=O)[C@H](CC(=O)O)NCCC1(c2ccc(O)c(OC)c2)CCCC1 [Compound 20, N-[N-[2-[1-(3-methoxy-4-hydroxyphenyl)cyclopentyl]ethyl]-L-α-aspartyl]-L-phenylalanine 1-methyl ester]
Sweetness (sweetening potency) [1]: 30000 times the sweetness of sugar | sweetness potency [1]: 30000

SMILES: CCOC(=O)[C@H](Cc1ccccc1)NC(=O)[C@H](CC(=O)O)NCCC(C)(C)c1ccc(OC)c(O)c1 [Compound 21, N-[N-[3-(3-hydroxy-4-methoxyphenyl)-3-methylbutyl]-L-α-aspartyl]-L-phenylalanine 1-ethyl ester]
Sweetness (sweetening potency) [1]: 15000 times the sweetness of sugar | sweetness potency [1]: 15000

SMILES: COC(=O)[C@](C)(Cc1ccccc1)NC(=O)[C@H](CC(=O)O)NCCC(C)(C)c1ccc(OC)c(O)c1 [Compound 22]
Sweetness (sweetening potency) [1]: 40000 times the sweetness of sugar | sweetness potency [1]: 40000

SMILES: COC(=O)[C@H](Cc1ccccc1)NC(=O)[C@H](CC(=O)O)NCCC(C)(C)c1ccc(O)c(O)c1 [Compound 23, N-[N-[3-(3,4-dihydroxyphenyl)-3-mehylbutyl]-L-α-aspartyl]-L-phenylalanine 1-methyl ester]
Sweetness (sweetening potency) [1]: 50000 times the sweetness of sugar | sweetness potency [1]: 50000

SMILES: COC(=O)[C@H](Cc1ccccc1)NC(=O)[C@H](CC(=O)O)NCCC(C)(C)C [N-[N-(3,3-dimethylbutyl)-L-α-aspartyl]-L-phenylalanine 1-methyl ester, reference compound]
sweetening potency [2]: 10,000 times that of sucrose | sweetening potency ([2]; listed as N-[N-(3,3-dimethylbutyl)-L-α-aspartyl]-L-phenylalanine 1-methylester): 10000 times that of sucrose

SMILES: COC(=O)[C@H](Cc1ccc(O)cc1)NC(=O)[C@H](CC(=O)O)NCCC(C)(C)C [N-[N-(3,3-dimethylbutyl)-L-α-aspartyl]-L-tyrosine 1-methyl ester]
sweetening potency [2]: 4,000 times that of sucrose | sweetening potency ([2]; listed as N-[N-(3,3-dimethylbutyl)-L-α-aspartyl]-L-tyrosine 1-methylester): 4000 times that of sucrose

SMILES: COC(=O)[C@H](Cc1ccccc1)NC(=O)[C@H](CC(=O)O)NCCCc1ccc(O)c(OC)c1 [N-[N-(3-(3-methoxy-4-hydroxyphenylpropyl)-L-α-aspartyl]-L-phenylalanine 1-methyl ester]
sweetening potency [2]: 2500 times that of sucrose

SMILES: COC(=O)[C@H](Cc1ccccc1)NC(=O)[C@H](CC(=O)O)NCCCc1ccccc1 [N-[N-(3-phenylpropyl)-L-(α-aspartyl]-L-phenylalanine 1-methyl ester]
sweetening potency [2]: 1500 times that of sucrose

half-life (physchem): 23.5 h
SMILES: COC(=O)[C@H](Cc1ccccc1)NC(=O)[C@@H](N)CC(=O)O [aspartame, reference compound] (H-Asp-Phe-OMe)
